Source: PubChem BioAssay (NCI)
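Method: 48-hour compound exposure of cells in 96-well plates, five concentrations, linear interpolation of endpoints. Definition used: TGI = concentration required for complete inhibition of growth.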

Experiments:
Experiment in all cases: NCI anticancer screen, dose series, 48 h
MDA-MB-231 breast = system: MDA-MB-231 breast
UACC-62 melanoma = system: UACC-62 melanoma
NCI-H522 lung = system: NCI-H522 lung
BT-549 breast = system: BT-549 breast
TK-10 renal = system: TK-10 renal
SF-295 CNS = system: SF-295 CNS
OVCAR-5 ovarian = system: OVCAR-5 ovarian
IGROV1 ovarian = system: IGROV1 ovarian
HCC-2998 colon = system: HCC-2998 colon
T-47D breast = system: T-47D breast
HOP-92 NSCLC = system: HOP-92 NSCLC
HS 578T breast = system: HS 578T breast
NCI/ADR-RES ovarian = system: NCI/ADR-RES ovarian
OVCAR-8 ovarian = system: OVCAR-8 ovarian
OVCAR-3 ovarian = system: OVCAR-3 ovarian
DU-145 prostate = system: DU-145 prostate
HOP-62 NSCLC = system: HOP-62 NSCLC
CAKI-1 renal = system: CAKI-1 renal
EKVX NSCLC = system: EKVX NSCLC
M14 melanoma = system: M14 melanoma
MCF7 breast = system: MCF7 breast
MOLT-4 leukemia = system: MOLT-4 leukemia
HT29 colon = system: HT29 colon
RXF 393 renal = system: RXF 393 renal
SNB-19 CNS = system: SNB-19 CNS
K-562 leukemia = system: K-562 leukemia
786-0 renal = system: 786-0 renal
SF-268 CNS = system: SF-268 CNS
OVCAR-4 ovarian = system: OVCAR-4 ovarian
SNB-75 CNS = system: SNB-75 CNS
SW-620 colon = system: SW-620 colon
NCI-H23 lung = system: NCI-H23 lung
HCT-15 colon = system: HCT-15 colon
MALME-3M melanoma = system: MALME-3M melanoma
SK-MEL-28 melanoma = system: SK-MEL-28 melanoma
SN12C renal = system: SN12C renal
SR leukemia = system: SR leukemia
SF-539 CNS = system: SF-539 CNS
LOX IMVI melanoma = system: LOX IMVI melanoma
SK-MEL-2 melanoma = system: SK-MEL-2 melanoma
SK-MEL-5 melanoma = system: SK-MEL-5 melanoma
NCI-H226 lung = system: NCI-H226 lung
U251 CNS = system: U251 CNS
HCT-116 colon = system: HCT-116 colon
MDA-MB-435 = system: MDA-MB-435
KM12 colon = system: KM12 colon
NCI-H460 lung = system: NCI-H460 lung
ACHN renal = system: ACHN renal
UACC-257 melanoma = system: UACC-257 melanoma
RPMI-8226 leukemia = system: RPMI-8226 leukemia
A498 renal = system: A498 renal
COLO 205 colon = system: COLO 205 colon
HL-60(TB) leukemia = system: HL-60(TB) leukemia
SK-OV-3 ovarian = system: SK-OV-3 ovarian
PC-3 prostate = system: PC-3 prostate
CCRF-CEM leukemia = system: CCRF-CEM leukemia
MDA-N = system: MDA-N
A549 NSCLC = system: A549 NSCLC
UO-31 renal = system: UO-31 renal

## Clc1cccc(Cl)c1C=NC12CC3CC(CC(C3)C1)C2
MDA-MB-231 breast
  TGI: > 10 µM
UACC-62 melanoma
  TGI: > 10 µM
NCI-H522 lung
  TGI: > 10 µM
BT-549 breast
  TGI: > 10 µM
TK-10 renal
  TGI: > 10 µM
SF-295 CNS
  TGI: > 10 µM
OVCAR-5 ovarian
  TGI: > 10 µM
IGROV1 ovarian
  TGI: > 10 µM
HCC-2998 colon
  TGI: > 10 µM
T-47D breast
  TGI: > 10 µM
HOP-92 NSCLC
  TGI: > 10 µM
HS 578T breast
  TGI: > 10 µM
NCI/ADR-RES ovarian
  TGI: > 10 µM
OVCAR-8 ovarian
  TGI: > 10 µM
OVCAR-3 ovarian
  TGI: > 10 µM
DU-145 prostate
  TGI: > 10 µM
HOP-62 NSCLC
  TGI: > 10 µM
CAKI-1 renal
  TGI: > 10 µM
EKVX NSCLC
  TGI: > 10 µM
M14 melanoma
  TGI: > 10 µM
MCF7 breast
  TGI: > 10 µM
MOLT-4 leukemia
  TGI: > 10 µM
HT29 colon
  TGI: > 10 µM
RXF 393 renal
  TGI: > 10 µM
SNB-19 CNS
  TGI: > 10 µM
K-562 leukemia
  TGI: > 10 µM
786-0 renal
  TGI: > 10 µM
SF-268 CNS
  TGI: > 10 µM
OVCAR-4 ovarian
  TGI: > 10 µM
SNB-75 CNS
  TGI: > 10 µM
SW-620 colon
  TGI: > 10 µM
NCI-H23 lung
  TGI: > 10 µM
HCT-15 colon
  TGI: > 10 µM
MALME-3M melanoma
  TGI: > 10 µM
SK-MEL-28 melanoma
  TGI: > 10 µM
SN12C renal
  TGI: > 10 µM
SR leukemia
  TGI: > 10 µM
SF-539 CNS
  TGI: > 10 µM
LOX IMVI melanoma
  TGI: > 10 µM
SK-MEL-2 melanoma
  TGI: > 10 µM
SK-MEL-5 melanoma
  TGI: > 10 µM
NCI-H226 lung
  TGI: > 10 µM
U251 CNS
  TGI: > 10 µM
HCT-116 colon
  TGI: > 10 µM
MDA-MB-435
  TGI: > 10 µM
KM12 colon
  TGI: > 10 µM
NCI-H460 lung
  TGI: > 10 µM
ACHN renal
  TGI: > 10 µM
UACC-257 melanoma
  TGI: > 10 µM
RPMI-8226 leukemia
  TGI: > 10 µM
A498 renal
  TGI: > 10 µM
COLO 205 colon
  TGI: > 10 µM
HL-60(TB) leukemia
  TGI: > 10 µM
SK-OV-3 ovarian
  TGI: > 10 µM
PC-3 prostate
  TGI: > 10 µM
CCRF-CEM leukemia
  TGI: > 10 µM
MDA-N
  TGI: > 10 µM
A549 NSCLC
  TGI: > 10 µM

## O=C1CC(=O)NC(=NN2C(=O)CSC2c2ccc(Cl)c(Cl)c2)N1 (stereo unspecified)
MDA-MB-231 breast
  TGI: > 100 µM
UACC-62 melanoma
  TGI: > 100 µM
NCI-H522 lung
  TGI: > 100 µM
BT-549 breast
  TGI: > 100 µM
TK-10 renal
  TGI: > 100 µM
SF-295 CNS
  TGI: > 100 µM
OVCAR-5 ovarian
  TGI: > 100 µM
IGROV1 ovarian
  TGI: > 100 µM
HCC-2998 colon
  TGI: > 100 µM
T-47D breast
  TGI: > 100 µM
HOP-92 NSCLC
  TGI: > 100 µM
HS 578T breast
  TGI: > 100 µM
NCI/ADR-RES ovarian
  TGI: > 100 µM
OVCAR-8 ovarian
  TGI: > 100 µM
OVCAR-3 ovarian
  TGI: > 100 µM
DU-145 prostate
  TGI: > 100 µM
HOP-62 NSCLC
  TGI: > 100 µM
CAKI-1 renal
  TGI: > 100 µM
M14 melanoma
  TGI: > 100 µM
MCF7 breast
  TGI: > 100 µM
MOLT-4 leukemia
  TGI: 54.3 µM
HT29 colon
  TGI: > 100 µM
RXF 393 renal
  TGI: > 100 µM
K-562 leukemia
  TGI: > 100 µM
786-0 renal
  TGI: > 100 µM
SF-268 CNS
  TGI: > 100 µM
OVCAR-4 ovarian
  TGI: > 100 µM
SNB-75 CNS
  TGI: > 100 µM
SW-620 colon
  TGI: > 100 µM
NCI-H23 lung
  TGI: > 100 µM
HCT-15 colon
  TGI: > 100 µM
MALME-3M melanoma
  TGI: > 100 µM
UO-31 renal
  TGI: > 100 µM
SK-MEL-28 melanoma
  TGI: > 100 µM
SN12C renal
  TGI: > 100 µM
SR leukemia
  TGI: > 100 µM
SF-539 CNS
  TGI: > 100 µM
SK-MEL-2 melanoma
  TGI: > 100 µM
SK-MEL-5 melanoma
  TGI: > 100 µM
NCI-H226 lung
  TGI: > 100 µM
U251 CNS
  TGI: > 100 µM
HCT-116 colon
  TGI: > 100 µM
MDA-MB-435
  TGI: > 100 µM
KM12 colon
  TGI: > 100 µM
NCI-H460 lung
  TGI: > 100 µM
ACHN renal
  TGI: > 100 µM
UACC-257 melanoma
  TGI: > 100 µM
RPMI-8226 leukemia
  TGI: > 100 µM
A498 renal
  TGI: > 100 µM
COLO 205 colon
  TGI: > 100 µM
SK-OV-3 ovarian
  TGI: > 100 µM
PC-3 prostate
  TGI: > 100 µM
CCRF-CEM leukemia
  TGI: 49.3 µM
MDA-N
  TGI: > 100 µM
A549 NSCLC
  TGI: > 100 µM

## CC12CCC(=O)C=C1CCC1C2CCC2(C)C(C(=O)Cn3cnc4c(=S)nc[nH]c43)CCC12 (stereo unspecified)
MDA-MB-231 breast
  TGI: > 100 µM
UACC-62 melanoma
  TGI: > 100 µM
NCI-H522 lung
  TGI: > 100 µM
BT-549 breast
  TGI: > 100 µM
TK-10 renal
  TGI: > 100 µM
SF-295 CNS
  TGI: 86.7 µM
OVCAR-5 ovarian
  TGI: > 100 µM
IGROV1 ovarian
  TGI: > 100 µM
T-47D breast
  TGI: > 100 µM
HOP-92 NSCLC
  TGI: 37.7 µM
HS 578T breast
  TGI: > 100 µM
NCI/ADR-RES ovarian
  TGI: > 100 µM
OVCAR-8 ovarian
  TGI: > 100 µM
OVCAR-3 ovarian
  TGI: 49.6 µM
DU-145 prostate
  TGI: 66.4 µM
HOP-62 NSCLC
  TGI: 47.1 µM
CAKI-1 renal
  TGI: > 100 µM
EKVX NSCLC
  TGI: > 100 µM
M14 melanoma
  TGI: > 100 µM
MCF7 breast
  TGI: 36.7 µM
MOLT-4 leukemia
  TGI: > 100 µM
HT29 colon
  TGI: > 100 µM
RXF 393 renal
  TGI: 44 µM
SNB-19 CNS
  TGI: 73.8 µM
K-562 leukemia
  TGI: > 100 µM
786-0 renal
  TGI: > 100 µM
SF-268 CNS
  TGI: > 100 µM
OVCAR-4 ovarian
  TGI: 55 µM
SNB-75 CNS
  TGI: 36.8 µM
SW-620 colon
  TGI: > 100 µM
NCI-H23 lung
  TGI: 82.5 µM
HCT-15 colon
  TGI: > 100 µM
MALME-3M melanoma
  TGI: > 100 µM
UO-31 renal
  TGI: > 100 µM
SK-MEL-28 melanoma
  TGI: > 100 µM
SN12C renal
  TGI: > 100 µM
SR leukemia
  TGI: > 100 µM
SF-539 CNS
  TGI: > 100 µM
LOX IMVI melanoma
  TGI: > 100 µM
SK-MEL-2 melanoma
  TGI: > 100 µM
SK-MEL-5 melanoma
  TGI: > 100 µM
NCI-H226 lung
  TGI: > 100 µM
U251 CNS
  TGI: > 100 µM
HCT-116 colon
  TGI: > 100 µM
MDA-MB-435
  TGI: 96.4 µM
KM12 colon
  TGI: > 100 µM
NCI-H460 lung
  TGI: > 100 µM
ACHN renal
  TGI: > 100 µM
UACC-257 melanoma
  TGI: > 100 µM
RPMI-8226 leukemia
  TGI: > 100 µM
A498 renal
  TGI: 79 µM
COLO 205 colon
  TGI: > 100 µM
HL-60(TB) leukemia
  TGI: > 100 µM
SK-OV-3 ovarian
  TGI: > 100 µM
PC-3 prostate
  TGI: > 100 µM
CCRF-CEM leukemia
  TGI: > 100 µM
MDA-N
  TGI: > 100 µM
A549 NSCLC
  TGI: > 100 µM
